Active and inactive are the calls of the source.
Experiments:
[1] = target: Protein-tyrosine kinase 2-beta (Homo sapiens, UniProt Q14289);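 further: potency of inhibitors of PYK2 kinase phosphorylation of poly-GT substrate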
Cytochrome P450 2C19 [2] = target: T1, Cytochrome P450 2C19 (Homo sapiens, UniProt P33261); experiment: Cytochrome panel assay with activity outcomes. Panel member name: p450-cyp2c19 Compounds with AC50 equal or less than 10 uM are considered active; assay type: functional; settings: read-out: AC50
T1 sequence (P33261 whole entry): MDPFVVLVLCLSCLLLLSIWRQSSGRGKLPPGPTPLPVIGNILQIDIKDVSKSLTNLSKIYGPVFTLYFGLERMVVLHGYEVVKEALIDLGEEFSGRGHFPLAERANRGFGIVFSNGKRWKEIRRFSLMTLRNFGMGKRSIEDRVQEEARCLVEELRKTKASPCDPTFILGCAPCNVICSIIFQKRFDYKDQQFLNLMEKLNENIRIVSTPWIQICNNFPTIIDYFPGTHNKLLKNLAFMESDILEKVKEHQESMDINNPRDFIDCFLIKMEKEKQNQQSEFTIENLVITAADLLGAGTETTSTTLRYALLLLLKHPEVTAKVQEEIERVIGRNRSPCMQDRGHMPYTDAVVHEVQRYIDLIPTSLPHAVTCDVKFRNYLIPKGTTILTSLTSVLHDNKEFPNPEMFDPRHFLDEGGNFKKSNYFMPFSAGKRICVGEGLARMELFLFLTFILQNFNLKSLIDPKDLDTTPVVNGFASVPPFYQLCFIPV

Cytochrome P450 2D6 = Cytochrome P450 2D6 (Homo sapiens, UniProt P10635);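 further: CYP2D6 member of a cytochrome P450 panel assay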
Chain of Cytochrome P450 2D6 (P10635 whole entry): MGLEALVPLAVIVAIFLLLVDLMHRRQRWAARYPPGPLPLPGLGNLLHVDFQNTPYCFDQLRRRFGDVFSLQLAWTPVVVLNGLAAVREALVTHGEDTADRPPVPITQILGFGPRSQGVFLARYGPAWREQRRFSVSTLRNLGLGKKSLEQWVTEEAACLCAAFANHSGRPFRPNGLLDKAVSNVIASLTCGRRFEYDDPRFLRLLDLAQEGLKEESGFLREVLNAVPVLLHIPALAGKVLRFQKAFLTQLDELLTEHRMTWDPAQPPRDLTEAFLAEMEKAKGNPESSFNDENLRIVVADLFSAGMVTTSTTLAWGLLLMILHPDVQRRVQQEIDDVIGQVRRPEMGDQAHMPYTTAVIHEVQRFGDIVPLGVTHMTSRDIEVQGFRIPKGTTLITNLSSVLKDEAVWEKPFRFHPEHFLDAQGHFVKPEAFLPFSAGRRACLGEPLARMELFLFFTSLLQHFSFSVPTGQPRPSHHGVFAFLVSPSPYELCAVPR

Cytochrome P450 2C9 = Cytochrome P450 2C9 (Homo sapiens, UniProt P11712)
Chain of Cytochrome P450 2C9 (P11712 whole entry): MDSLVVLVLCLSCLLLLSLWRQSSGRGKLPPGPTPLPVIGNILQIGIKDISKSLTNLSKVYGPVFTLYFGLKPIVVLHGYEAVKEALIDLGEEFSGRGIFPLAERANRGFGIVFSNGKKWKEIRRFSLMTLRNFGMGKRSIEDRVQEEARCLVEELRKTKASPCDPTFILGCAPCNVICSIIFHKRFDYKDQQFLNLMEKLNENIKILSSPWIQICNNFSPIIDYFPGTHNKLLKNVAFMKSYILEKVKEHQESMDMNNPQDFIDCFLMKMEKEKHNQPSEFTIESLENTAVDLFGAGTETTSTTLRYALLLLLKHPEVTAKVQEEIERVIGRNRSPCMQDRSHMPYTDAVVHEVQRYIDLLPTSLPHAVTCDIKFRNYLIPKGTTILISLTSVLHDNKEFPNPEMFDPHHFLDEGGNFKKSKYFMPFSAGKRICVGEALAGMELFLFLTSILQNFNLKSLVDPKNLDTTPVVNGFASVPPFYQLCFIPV

[3] = target: Peroxisome proliferator-activated receptor gamma/Nuclear receptor corepressor 2 (Homo sapiens, UniProt P37231+Q9Y618); experiment: Counterscreen for NR2E3 inverse agonists: TR-FRET-based biochemical high throughput dose response assay to identify inverse agonists of the interaction between peroxisome proliferator-activated receptor gamma (PPARg) and nuclear receptor co-repressor 2 (NCOR2).; assay type: functional
[4] = target: Photoreceptor-specific nuclear receptor (Homo sapiens, UniProt Q9Y5X4); experiment: ligands suppressing NR2E3 nuclear receptor activity – biochemical, TR-FRET, dose response (AID 463256); assay type: functional
Chain of Photoreceptor-specific nuclear receptor (Q9Y5X4 whole entry): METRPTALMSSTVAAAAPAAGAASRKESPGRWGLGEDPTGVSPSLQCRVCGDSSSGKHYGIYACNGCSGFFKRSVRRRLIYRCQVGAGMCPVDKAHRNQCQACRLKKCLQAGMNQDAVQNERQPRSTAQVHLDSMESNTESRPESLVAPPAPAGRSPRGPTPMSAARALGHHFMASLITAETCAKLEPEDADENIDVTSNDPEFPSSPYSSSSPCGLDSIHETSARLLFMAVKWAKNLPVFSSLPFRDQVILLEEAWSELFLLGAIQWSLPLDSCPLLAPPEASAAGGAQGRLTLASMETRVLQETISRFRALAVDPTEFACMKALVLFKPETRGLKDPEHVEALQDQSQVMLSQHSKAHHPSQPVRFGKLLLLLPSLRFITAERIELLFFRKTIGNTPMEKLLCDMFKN

[5] = target: Diphosphomevalonate decarboxylase (Streptococcus pneumoniae serotype 2 (strain D39 / NCTC 7466), UniProt Q9FD53); experiment: diphosphomevalonate decarboxylase inhibitor confirmation – biochemical, cuvette format, coupled NADH fluorescence (AID 1028); assay type: functional
Chain of Diphosphomevalonate decarboxylase (Q9FD53 whole entry): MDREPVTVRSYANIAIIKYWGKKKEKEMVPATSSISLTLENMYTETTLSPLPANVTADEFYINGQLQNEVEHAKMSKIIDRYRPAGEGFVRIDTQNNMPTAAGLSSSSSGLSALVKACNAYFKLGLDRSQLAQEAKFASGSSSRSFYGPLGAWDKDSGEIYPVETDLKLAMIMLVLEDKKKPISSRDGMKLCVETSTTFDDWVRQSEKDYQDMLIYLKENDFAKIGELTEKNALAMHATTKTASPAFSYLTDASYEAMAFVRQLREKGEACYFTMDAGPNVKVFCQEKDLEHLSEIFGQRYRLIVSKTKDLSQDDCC

Cytochrome P450 2C19 [6] = target: T1, Cytochrome P450 2C19; experiment: qHTS Assay for Inhibitors and Substrates of Cytochrome P450 2C19. [Related pubchem assays: 410 ]; assay type: ADME; settings: read-out: Potency
[7] = target: T2, Tyrosine-protein phosphatase non-receptor type 7 (Homo sapiens, UniProt P35236); experiment: HePTP tyrosine phosphatase activity blockers – biochemical, absorbance, leukemia target, primary screen (AID 521); assay type: functional
T2 sequence (P35236 whole entry): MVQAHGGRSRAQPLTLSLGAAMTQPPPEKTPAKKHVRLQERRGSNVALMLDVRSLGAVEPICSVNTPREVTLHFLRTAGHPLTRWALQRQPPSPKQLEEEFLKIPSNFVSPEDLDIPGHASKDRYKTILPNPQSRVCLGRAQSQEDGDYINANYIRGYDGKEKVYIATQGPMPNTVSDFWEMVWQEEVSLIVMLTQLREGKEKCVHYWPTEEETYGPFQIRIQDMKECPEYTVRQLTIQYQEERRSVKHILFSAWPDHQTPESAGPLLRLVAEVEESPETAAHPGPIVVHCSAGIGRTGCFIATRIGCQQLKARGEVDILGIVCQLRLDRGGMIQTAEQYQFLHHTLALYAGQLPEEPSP

Streptokinase A = target: T3, Streptokinase A (Streptococcus pyogenes serotype M1, UniProt P10520); experiment: viability-normalized secreted streptokinase activity reduction – plasminogen activation absorbance, OD405, dose response (AID 1914); assay type: functional, Streptococcus pyogenes M1 GAS;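 further: secreted streptokinase activity via plasminogen activation per viability signal from cell pellet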
T3 sequence (P10520 whole entry): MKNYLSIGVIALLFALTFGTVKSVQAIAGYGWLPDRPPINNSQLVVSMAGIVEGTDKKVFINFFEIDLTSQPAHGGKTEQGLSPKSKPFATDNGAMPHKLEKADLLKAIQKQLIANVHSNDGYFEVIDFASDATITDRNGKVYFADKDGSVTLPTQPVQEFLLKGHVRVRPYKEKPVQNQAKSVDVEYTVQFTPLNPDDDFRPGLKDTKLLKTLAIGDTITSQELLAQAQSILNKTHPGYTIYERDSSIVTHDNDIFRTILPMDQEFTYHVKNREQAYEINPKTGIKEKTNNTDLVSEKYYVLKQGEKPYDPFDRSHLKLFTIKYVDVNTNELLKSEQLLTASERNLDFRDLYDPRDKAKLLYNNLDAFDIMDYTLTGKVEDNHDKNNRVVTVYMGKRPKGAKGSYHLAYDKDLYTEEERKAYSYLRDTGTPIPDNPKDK

Streptococcus = experiment: GAS UMAA2166 growth inhibition – luminescence, BacTiterGlo, counter-screen for streptokinase expression inhibitor project, dose response (AID 1915); assay type: functional, organism-based;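 further: potency for reduction of bacterial viability or growth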
[8] = HEK-293T viability loss after treatment – luminescence, T-cell screen hits, cytotoxicity control for TCR NF-kB inhibitor project, dose response (AID 489026); assay type: functional, cell-based;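 further: cells exposed to compound about 14 hours before the viability readout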
14-3-3 protein gamma = 14-3-3 protein gamma (Homo sapiens, UniProt P61981); experiment: modulators of 14-3-3 gamma client binding – dose response (AID 711); assay type: functional
Chain of 14-3-3 protein gamma (P61981 whole entry): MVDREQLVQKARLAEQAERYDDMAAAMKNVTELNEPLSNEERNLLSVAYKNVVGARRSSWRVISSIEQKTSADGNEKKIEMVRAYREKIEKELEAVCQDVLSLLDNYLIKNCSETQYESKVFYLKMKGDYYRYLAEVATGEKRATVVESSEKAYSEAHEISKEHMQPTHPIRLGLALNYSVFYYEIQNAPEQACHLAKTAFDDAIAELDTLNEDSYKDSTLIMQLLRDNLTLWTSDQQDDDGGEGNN

[9] = target: 5-hydroxytryptamine receptor 1A (Homo sapiens, UniProt P08908); assay type: functional
Chain of 5-hydroxytryptamine receptor 1A (P08908 whole entry): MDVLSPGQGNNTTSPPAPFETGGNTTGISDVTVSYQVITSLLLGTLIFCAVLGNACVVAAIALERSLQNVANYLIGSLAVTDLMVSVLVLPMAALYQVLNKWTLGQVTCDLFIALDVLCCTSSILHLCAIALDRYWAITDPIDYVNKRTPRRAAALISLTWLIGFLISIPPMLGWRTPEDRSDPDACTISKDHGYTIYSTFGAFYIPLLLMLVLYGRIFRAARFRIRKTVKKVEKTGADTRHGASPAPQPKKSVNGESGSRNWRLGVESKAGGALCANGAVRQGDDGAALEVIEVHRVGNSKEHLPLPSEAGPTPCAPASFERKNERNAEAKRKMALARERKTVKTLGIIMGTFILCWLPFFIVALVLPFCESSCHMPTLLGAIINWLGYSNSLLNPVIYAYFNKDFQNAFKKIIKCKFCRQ

[10] = target: T4, Aryl hydrocarbon receptor (Homo sapiens, UniProt P35869); experiment: Luminescence-based cell-based high throughput dose response assay for activators of the Aryl Hydrocarbon Receptor (AHR). [Related pubchem assays: 2796 (Primary screen (AHR activators in singlicate)), 2845 (Confirmation screen (AHR activators in triplicate)), 434939 (Counterscreen (PXR activators in triplicate)), 2804 (Summary (AHR activators))]; assay type: ADME
T4 sequence (P35869 whole entry): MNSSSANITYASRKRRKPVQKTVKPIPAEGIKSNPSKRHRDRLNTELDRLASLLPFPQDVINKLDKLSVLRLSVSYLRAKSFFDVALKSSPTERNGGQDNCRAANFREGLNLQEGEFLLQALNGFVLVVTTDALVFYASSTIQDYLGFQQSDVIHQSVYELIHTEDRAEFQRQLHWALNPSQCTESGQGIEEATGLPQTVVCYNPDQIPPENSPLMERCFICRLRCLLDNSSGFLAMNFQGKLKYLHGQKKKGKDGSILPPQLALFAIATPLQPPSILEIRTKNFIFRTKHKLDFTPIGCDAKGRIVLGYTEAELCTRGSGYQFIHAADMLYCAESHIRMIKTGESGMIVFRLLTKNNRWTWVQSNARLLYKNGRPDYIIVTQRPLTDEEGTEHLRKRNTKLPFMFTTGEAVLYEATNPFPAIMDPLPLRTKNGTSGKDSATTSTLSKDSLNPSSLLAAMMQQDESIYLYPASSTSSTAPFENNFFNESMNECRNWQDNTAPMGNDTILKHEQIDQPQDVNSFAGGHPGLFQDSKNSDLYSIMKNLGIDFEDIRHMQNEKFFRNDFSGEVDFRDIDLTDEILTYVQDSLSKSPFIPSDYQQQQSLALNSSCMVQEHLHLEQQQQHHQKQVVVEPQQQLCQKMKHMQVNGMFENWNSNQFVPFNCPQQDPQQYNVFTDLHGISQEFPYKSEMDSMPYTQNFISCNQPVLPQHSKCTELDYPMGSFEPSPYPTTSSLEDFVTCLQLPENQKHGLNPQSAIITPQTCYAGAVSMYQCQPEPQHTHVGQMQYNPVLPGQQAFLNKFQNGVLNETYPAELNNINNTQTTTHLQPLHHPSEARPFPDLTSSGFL

[11] = target: Mitogen-activated protein kinase 10 (Homo sapiens, UniProt P53779); experiment: Dose response biochemical screening assay for inhibitors of c-Jun N-Terminal Kinase 3 (JNK3). [Related pubchem assays: 746 ]
Chain of Mitogen-activated protein kinase 10 (P53779 whole entry): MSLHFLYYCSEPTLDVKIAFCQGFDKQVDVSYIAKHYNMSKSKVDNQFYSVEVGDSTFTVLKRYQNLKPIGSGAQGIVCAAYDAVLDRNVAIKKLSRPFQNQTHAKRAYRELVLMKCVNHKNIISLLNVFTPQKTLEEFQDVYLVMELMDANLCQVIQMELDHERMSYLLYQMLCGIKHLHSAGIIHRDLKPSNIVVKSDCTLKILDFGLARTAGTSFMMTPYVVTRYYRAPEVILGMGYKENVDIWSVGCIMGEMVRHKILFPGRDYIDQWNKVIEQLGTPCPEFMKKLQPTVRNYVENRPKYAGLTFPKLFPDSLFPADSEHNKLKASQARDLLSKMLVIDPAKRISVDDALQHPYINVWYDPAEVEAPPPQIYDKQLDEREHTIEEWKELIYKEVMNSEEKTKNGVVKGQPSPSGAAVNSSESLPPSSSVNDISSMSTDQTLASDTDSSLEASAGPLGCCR

Galanin receptor type 2 = Galanin receptor type 2 (Homo sapiens, UniProt O43603); experiment: Dose Response cell-based high-throughput screening assay to identify antagonists of galanin receptor 2 (GALR2). [Related pubchem assays: 828, 866 ]; assay type: functional
Chain of Galanin receptor type 2 (O43603 whole entry): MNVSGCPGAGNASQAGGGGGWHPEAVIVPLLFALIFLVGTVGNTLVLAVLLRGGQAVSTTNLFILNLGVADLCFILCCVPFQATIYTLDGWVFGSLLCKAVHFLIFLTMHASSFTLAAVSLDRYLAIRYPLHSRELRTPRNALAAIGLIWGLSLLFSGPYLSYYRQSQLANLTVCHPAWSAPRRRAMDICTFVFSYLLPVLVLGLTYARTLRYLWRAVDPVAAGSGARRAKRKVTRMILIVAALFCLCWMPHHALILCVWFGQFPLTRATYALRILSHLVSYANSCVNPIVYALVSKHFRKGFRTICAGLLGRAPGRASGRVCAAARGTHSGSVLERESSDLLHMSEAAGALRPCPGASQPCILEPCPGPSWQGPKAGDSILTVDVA

INS1 = experiment: INS-1E survival protection against cytokine death – cell-based, luminescence, retest, dose response (AID 449756); assay type: functional; settings: Rattus norvegicus;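 further: cell death triggered by IL-1 beta plus TNF-alpha plus IFN-gamma mixture; protective hits raise ATP signal compared with cytokine alone wells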
[12] = reduction of Shn3 3'UTR-driven luciferase in osteoblasts – cell-based, Clone20 osteoblasts, firefly luciferase, cherry-picked, dose response (AID 624132); assay type: functional;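 further: firefly luciferase luminescence from reporter carrying the Shn3 3'UTR in osteoblasts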
[13] = loss of viability in HepG2 cells – cell-based, CellTiter-Glo, cherry-picked, cytotoxicity control for Shn3 inhibitor project, dose response (AID 624134); assay type: functional
[14] = non-specific 3'UTR reporter inhibition in Clone20-Shn3RL – cell-based, Renilla luciferase, cherry-picked, counter-screen for Shn3 inhibitor project, dose response (AID 624133); assay type: functional
Leucine aminopeptidase = target: T5, Leucine aminopeptidase (Plasmodium falciparum 3D7, UniProt Q8IL11); experiment: P. falciparum M17LAP inhibitors, primary screen, biochemical, fluorogenic H-Leu-NHMec substrate, 1536-well (AID 1619); assay type: functional
T5 sequence (Q8IL11 whole entry): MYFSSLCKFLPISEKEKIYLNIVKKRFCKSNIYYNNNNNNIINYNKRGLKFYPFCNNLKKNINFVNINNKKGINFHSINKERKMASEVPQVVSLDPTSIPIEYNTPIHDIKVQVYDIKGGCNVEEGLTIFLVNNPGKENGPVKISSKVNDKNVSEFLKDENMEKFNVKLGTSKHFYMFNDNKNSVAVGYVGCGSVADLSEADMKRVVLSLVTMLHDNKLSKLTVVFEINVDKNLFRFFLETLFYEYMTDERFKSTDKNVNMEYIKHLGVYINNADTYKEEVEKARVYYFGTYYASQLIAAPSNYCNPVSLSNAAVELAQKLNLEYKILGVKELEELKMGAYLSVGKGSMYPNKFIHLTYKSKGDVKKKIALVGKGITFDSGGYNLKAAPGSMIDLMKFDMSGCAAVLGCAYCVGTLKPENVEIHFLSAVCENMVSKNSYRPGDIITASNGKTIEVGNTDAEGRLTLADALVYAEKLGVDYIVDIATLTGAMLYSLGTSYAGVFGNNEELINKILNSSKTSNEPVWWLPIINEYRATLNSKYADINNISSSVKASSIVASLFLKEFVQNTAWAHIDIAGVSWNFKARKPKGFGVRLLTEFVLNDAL

Aspartyl aminopeptidase = Aspartyl aminopeptidase (Plasmodium falciparum 3D7, UniProt Q8I2J3); experiment: Counterscreen for inhibitors of M1 and M17 aminopeptidases: QFRET-based biochemical high throughput dose response assay for inhibitors of the Plasmodium falciparum M18 Aspartyl Aminopeptidase (PFM18AAP). [Related PubChem assays: 1619 (Screening assay (M17LAP inhibitors).), 1445 (Screening assay (M1AAP inhibitors).)]
Chain of Aspartyl aminopeptidase (Q8I2J3 whole entry): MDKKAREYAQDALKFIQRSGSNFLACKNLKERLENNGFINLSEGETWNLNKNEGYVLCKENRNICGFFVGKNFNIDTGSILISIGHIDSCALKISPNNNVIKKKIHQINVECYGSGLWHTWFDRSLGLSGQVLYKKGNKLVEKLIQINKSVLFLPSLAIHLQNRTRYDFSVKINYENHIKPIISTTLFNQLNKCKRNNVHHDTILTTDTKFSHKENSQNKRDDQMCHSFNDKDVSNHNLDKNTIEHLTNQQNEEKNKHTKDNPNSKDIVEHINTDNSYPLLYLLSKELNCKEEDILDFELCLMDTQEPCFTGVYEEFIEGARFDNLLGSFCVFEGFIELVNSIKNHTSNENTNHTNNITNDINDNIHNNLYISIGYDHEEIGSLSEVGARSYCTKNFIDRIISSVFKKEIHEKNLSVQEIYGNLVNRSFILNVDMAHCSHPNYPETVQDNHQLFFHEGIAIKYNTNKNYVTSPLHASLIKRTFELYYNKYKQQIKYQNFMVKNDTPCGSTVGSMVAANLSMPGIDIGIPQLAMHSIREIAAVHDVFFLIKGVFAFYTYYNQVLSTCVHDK

Procathepsin L = Procathepsin L (Homo sapiens, UniProt P07711); experiment: CTSL1 protease inhibition – biochemical, QFRET, 1536-well, counter-screen for M1/M17 aminopeptidase inhibitor project, dose response (AID 2214)
Chain of Procathepsin L (P07711 whole entry): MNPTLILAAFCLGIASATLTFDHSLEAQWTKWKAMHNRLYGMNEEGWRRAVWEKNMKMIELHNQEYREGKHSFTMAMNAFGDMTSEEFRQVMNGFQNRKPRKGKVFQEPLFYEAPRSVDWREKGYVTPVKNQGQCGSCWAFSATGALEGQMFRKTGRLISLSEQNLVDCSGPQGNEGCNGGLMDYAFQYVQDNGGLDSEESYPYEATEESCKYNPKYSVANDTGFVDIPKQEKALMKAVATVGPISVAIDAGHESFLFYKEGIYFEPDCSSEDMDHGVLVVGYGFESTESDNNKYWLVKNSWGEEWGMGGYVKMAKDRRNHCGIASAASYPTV

O=C(NCCc1c[nH]c2ccccc12)C1CCN(c2nnc(N3CCCC3=O)s2)CC1
IC50 [1]: 22.7 µM (not active)
AC50 (Cytochrome P450 2C19 [2]): 7.94 µM (inconclusive)
AC50 (Cytochrome P450 2D6): 10 µM (inconclusive)
AC50 (Cytochrome P450 2C9): 10 µM (inconclusive)

COc1ccc(-n2nc(C(=O)NCC(=O)NCc3ccc(F)cc3)c3ccccc3c2=O)cc1OC
IC50 [3]: 0.941 µM (active)
IC50 [4]: 1.46 µM (active)

O=C(NC1CC1)c1ccc(-n2sc3ccccc3c2=O)cc1
IC50 [5]: 11.4 µM (active)

COC(=O)C(C(C)=O)C(NC(=O)NCc1ccccc1)c1ccccc1 (centres undefined)
AC50 (Cytochrome P450 2C19 [6]): 1.26 µM (inconclusive)

COc1cccc2sc(Nc3nnc(-c4ccccc4Cl)o3)nc12
IC50 [7]: > 100 µM (not active)
EC50 (Streptokinase A): > 150 µM (not active)
EC50 (Streptococcus): > 150 µM (inconclusive)
IC50 [8]: 61.1 µM (inactive)

Cc1nc2nc(Cc3ccccc3)nn2c(O)c1Cc1ccccc1
IC50 (14-3-3 protein gamma): > 50 µM (not active)

O=S(=O)(c1cccc(Cl)c1)N1CCCC1
EC50 [9]: > 50 µM (not active)

NC(=O)c1oc2ccccc2c1NC(=O)c1ccc(F)cc1
EC50 [10]: 4.12 µM (active)
IC50 [11]: 23.9 µM (not active)

Cc1cccc(C(=O)Nc2ccc(C(=O)/C=C/c3cccnc3)cc2)c1
IC50 (Galanin receptor type 2): 21.4 µM (not active)
AC50 (INS1): 5.53 µM (active)
AC50 [12]: 6.23 µM (active)
AC50 [13]: 30.9 µM (active)
AC50 [14]: 10.7 µM (active)

Cc1c(O)n(-c2ccccc2)c(SCC(=O)Nc2ccc3c4c(cccc24)CC3)nc1=O
IC50 (Leucine aminopeptidase): 5.11 µM (active)
IC50 (Aspartyl aminopeptidase): > 73.5 µM (not active)
IC50 (Procathepsin L): > 59.6 µM (not active)
